Results: patent US20250276074A1, “BRM AND BRG1 TARGETING ANTIBODY-DRUG CONJUGATES AND METHODS OF USE THEREOF” (Prelude Therapeutics Incorporated, priority 2024, published 2025)

What was measured:
SMARCA2 [1] = target: T1, SMARCA2 (Homo sapiens, UniProt P51531); assay: Single dose pharmacodynamics, SMARCA2 in LNCaP tumors by western blot; type: in vivo; set-up: from tissue; host or cells: LNCaP xenograft tumours from CB17 SCID mice; conditions: mouse, LNCaP tumors in mice, tumors collected 1-5 days later, read-out: maximal degradation of SMARCA2
Description: (§4) In-life evaluation was conducted using 6-8-week-old male CB17 SCID mice that were subcutaneously inoculated with LNCaP tumor cells mixed 1:1 with Matrigel. Mice were castrated 3 days prior to randomization, which was done when tumors for efficacy evaluation would reach 100 mm^3-400 mm^3. […] Tumors were subsequently homogenized, and proteins were extracted before evaluating SMARCA2 and SMARCA4 expression by western blot.

[2] = system: PSMA+ prostate cancer CDX (LNCaP); assay: Anti-tumor efficacy in PSMA+ prostate cancer CDX (LNCaP); type: in vivo; conditions: castrated male CB17 SCID mice, 10 mg/kg s.c. Q3D, day 21
Description: as §4

SMARCA4 [3] = target: T2, SMARCA4 (Homo sapiens, UniProt P51532); assay: Single dose pharmacodynamics, SMARCA4 in LNCaP tumors by western blot; type: in vivo; set-up: from tissue; host or cells: LNCaP xenograft tumours from CB17 SCID mice; conditions: mouse, LNCaP tumors in mice, tumors collected 1-5 days later, read-out: maximal degradation of SMARCA4
Description: as §4

[4] = Body weight and survival of mice in the PC3 tumor study; type: in vivo, mouse; conditions: weekly administration, FIGS. 3A-3B
PSMA negative PC3 tumors = assay: Tumor growth inhibition in PSMA negative PC3 tumors, weekly administration; type: in vivo, mouse; conditions: FIGS. 3A-3B
[5] = Tolerability in the LNCaP CDX efficacy study; conditions: CB17 SCID mice with LNCaP tumors
Description: In-life evaluation was conducted using 6-8-week-old male CB17 SCID mice that were subcutaneously inoculated with LNCaP tumor cells mixed 1:1 with Matrigel. Mice were castrated 3 days prior to randomization, which was done when tumors for efficacy evaluation would reach 100 mm^3-400 mm^3.

SMARCA4 [6] = target: T2, SMARCA4; assay: SMARCA4 HiBiT degradation assay in HeLa cells; type: cell-based; set-up: SMARCA4-HiBiT knock-in Hela monoclonal cell (CS3023226) were purchased from Promega; host or cells: HeLa SMARCA4-HiBiT knock-in monoclonal cells (heterozygous); conditions: 18 hours; for Dmax: HeLa
Description: (§1) HiBiT peptide knock-in of SMARCA2 in LgBiT expressing HEK293T cells was performed by CRISPR-mediated tagging system as described Promega. The homozygous HiBiT knock-in on c-terminus SMARCA2 was confirmed by sanger sequence. SMARCA2-HiBiT knock-in Hela monoclonal cell (CS302366) and SMARCA4-HiBiT knock-in Hela monoclonal cell (CS3023226) were purchased from Promega. The heterozygous HiBiT-knock-in was confirmed by sanger sequence in both SMARCA2-HiBiT and SMARCA4-HiBiT monoclonal cells.
(§2) Dispense 10ul aliquot of prepared Hela-SMARCA2-HiBiT or Hela-SMARCA4-HiBiT cells (1:1 ratio of cells:Trypan Blue (#1450013, Bio-Rad)) onto cell counting slide (#145-0011, Bio-Rad) and obtain cell density and cell viability using cell counter (TC20, Bio-Rad). Remove appropriate volume of resuspended cells from culture flask to accommodate 2500 cells/well @20 μL/well. Transfer Hela-HiBiT cells to 50 mL conical (#430290, Corning). Spin down at 1000 rpm for 5 min using tabletop centrifuge (SPINCHRON 15, Beckman). Discard supernatant and resuspend cell pellet in modified EMEM (#30-2003, ATCC) cell culture media containing 10% FBS (F2422-500ML, Sigma), and 1× Penicillin/Streptomycin (200 g/L) (30-002-CI, Corning) to a cell density of 125,000 cells/mL. Dispense […] of resuspended Hela-HiBit cells per well in 384-well TC treated plate (#12-565-343, Thermo Scientific) using standard cassette (#50950372, Thermo Scientific) on Multidrop Combi (#5840310, Thermo Scientific) inside laminar flow cabinet.
(§3) The degrader compounds of Table 4 were dissolved in DMSO to make 10 mM stock and 3-fold series dilutions were further conducted keeping the highest concentration 10 μM. Dispense test compounds onto plates using digital liquid dispenser (D300E, Tecan). Incubate plates in humidified tissue culture incubator at 37° C. for 18 hours. Add […] of prepared Nano-Glo® HiBiT Lytic detection buffer (N3050, Promega) to each well of 384-well plate using small tube cassette (#24073295, Thermo Scientific) on Multidrop Combi, incubate at room temperature for 30-60 min. Read plates on microplate reader (Envision 2105, PerkinElmer) using 384 well Ultra-Sensitive luminescence mode. Raw data files and compound information reports are swept into centralized data lake and deconvoluted using automated scripts designed by TetraScience, Inc. Data analysis, curve-fitting and reporting done in Dotmatics Informatics Suite using Screening Ultra module.

SMARCA2 [7] = target: T1, SMARCA2; assay: SMARCA2 HiBiT degradation assay in HeLa cells; type: cell-based; conditions: 18 hours
Description: as §1, §2, §3

[8] = system: SMARCA4 mutated cancer cells; conditions: Vangamudi et al. Cancer Res 2015; cited from earlier work
[9] = iv, single dose 20 mg/kg i.v. infusion

T1 sequence (P51531 whole entry): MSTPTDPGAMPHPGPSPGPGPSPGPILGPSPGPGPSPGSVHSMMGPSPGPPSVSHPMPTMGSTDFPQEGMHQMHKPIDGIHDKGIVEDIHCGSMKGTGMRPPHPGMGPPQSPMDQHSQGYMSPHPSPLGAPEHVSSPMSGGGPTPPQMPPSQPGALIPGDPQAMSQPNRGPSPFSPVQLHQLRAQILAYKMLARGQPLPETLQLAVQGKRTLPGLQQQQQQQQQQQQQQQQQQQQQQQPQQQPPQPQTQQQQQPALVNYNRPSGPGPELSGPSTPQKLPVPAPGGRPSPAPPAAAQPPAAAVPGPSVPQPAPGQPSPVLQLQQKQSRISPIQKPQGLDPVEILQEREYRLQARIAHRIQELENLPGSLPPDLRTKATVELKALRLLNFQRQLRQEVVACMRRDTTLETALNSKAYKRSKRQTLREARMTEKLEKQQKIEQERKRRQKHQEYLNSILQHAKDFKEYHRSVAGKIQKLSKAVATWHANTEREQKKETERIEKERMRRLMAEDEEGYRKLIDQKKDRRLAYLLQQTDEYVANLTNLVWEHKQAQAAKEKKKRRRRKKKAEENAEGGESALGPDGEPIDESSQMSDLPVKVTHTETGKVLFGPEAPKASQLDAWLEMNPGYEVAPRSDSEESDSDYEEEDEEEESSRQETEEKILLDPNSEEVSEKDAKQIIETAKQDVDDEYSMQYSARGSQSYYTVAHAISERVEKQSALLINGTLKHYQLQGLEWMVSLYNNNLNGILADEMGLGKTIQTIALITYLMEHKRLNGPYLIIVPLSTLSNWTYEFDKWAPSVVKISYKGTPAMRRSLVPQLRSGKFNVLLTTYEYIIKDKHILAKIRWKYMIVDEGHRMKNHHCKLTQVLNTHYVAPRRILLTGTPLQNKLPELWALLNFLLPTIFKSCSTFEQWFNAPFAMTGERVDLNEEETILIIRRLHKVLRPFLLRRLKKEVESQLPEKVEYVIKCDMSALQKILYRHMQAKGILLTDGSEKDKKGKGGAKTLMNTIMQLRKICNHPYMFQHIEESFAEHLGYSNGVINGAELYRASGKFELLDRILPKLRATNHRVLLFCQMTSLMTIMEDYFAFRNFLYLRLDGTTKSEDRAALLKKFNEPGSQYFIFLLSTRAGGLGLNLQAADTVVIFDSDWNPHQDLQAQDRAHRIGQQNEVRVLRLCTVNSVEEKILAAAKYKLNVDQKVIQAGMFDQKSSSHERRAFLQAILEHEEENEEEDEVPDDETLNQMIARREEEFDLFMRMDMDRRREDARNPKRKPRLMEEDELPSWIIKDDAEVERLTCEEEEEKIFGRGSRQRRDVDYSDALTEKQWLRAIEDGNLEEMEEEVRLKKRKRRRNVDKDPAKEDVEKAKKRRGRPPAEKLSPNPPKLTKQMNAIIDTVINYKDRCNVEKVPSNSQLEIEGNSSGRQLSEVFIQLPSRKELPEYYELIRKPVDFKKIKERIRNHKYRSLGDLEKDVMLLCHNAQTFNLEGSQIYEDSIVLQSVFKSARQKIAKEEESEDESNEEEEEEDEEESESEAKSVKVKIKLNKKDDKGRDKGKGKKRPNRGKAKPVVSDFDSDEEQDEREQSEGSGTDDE
T2 sequence (P51532 whole entry): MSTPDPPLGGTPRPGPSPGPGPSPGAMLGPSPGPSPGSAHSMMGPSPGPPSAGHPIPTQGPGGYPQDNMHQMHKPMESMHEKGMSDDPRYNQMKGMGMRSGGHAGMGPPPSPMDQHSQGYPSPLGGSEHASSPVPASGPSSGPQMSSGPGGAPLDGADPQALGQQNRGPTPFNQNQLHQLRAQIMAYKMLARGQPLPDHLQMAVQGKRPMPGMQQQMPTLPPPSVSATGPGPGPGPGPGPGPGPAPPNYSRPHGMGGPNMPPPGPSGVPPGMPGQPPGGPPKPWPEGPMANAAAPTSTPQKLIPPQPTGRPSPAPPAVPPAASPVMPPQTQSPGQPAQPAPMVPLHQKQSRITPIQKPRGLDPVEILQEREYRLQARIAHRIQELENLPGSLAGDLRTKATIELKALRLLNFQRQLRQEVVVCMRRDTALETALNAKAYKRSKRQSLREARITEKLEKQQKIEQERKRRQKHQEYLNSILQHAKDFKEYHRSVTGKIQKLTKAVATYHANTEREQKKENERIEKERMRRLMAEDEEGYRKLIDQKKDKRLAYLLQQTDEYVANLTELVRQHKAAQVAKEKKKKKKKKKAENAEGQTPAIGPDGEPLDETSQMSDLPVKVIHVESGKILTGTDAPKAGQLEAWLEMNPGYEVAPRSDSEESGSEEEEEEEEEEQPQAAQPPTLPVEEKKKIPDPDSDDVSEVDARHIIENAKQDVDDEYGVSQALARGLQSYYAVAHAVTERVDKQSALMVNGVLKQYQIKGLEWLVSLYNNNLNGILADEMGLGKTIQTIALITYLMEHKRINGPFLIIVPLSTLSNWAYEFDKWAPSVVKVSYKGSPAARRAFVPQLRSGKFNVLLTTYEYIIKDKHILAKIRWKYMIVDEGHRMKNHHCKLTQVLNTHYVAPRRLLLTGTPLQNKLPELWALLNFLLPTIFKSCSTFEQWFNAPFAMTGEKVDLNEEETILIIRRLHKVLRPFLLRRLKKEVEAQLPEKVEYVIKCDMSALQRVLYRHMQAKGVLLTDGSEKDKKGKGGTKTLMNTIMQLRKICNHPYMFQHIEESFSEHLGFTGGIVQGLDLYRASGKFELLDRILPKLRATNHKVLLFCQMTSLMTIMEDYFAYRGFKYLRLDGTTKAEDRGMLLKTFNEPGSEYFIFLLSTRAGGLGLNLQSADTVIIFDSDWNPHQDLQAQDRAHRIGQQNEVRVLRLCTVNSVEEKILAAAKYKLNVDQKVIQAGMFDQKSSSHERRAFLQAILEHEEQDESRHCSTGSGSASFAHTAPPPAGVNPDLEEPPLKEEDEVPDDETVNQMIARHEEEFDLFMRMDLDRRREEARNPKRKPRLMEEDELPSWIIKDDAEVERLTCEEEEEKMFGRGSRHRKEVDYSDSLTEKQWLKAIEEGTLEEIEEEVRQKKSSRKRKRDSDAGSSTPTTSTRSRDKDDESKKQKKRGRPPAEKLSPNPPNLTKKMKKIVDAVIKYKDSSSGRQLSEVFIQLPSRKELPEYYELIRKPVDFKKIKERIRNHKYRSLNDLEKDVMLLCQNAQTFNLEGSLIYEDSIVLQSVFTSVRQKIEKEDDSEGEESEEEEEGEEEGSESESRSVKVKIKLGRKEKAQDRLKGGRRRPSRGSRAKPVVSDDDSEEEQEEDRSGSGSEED

| DC50 (SMARCA4 [6]) | Dmax (SMARCA4 [6]) | DC50 (SMARCA2 [7]) | Dmax (SMARCA2 [7]) | Compound | further results |
| --- | --- | --- | --- | --- | --- |
| 1 to 10 nM | > 90% | 0.1 to 1 nM | > 90% | Cc1ncsc1-c1ccc([C@H](C)NC(=O)[C@@H]2C[C@@H](O)CN2C(=O)[C@@H](c2cc(OCCN3CCC(N4CCN5c6cc(-c7ccccc7O)nnc6N[C@@H](C)[C@@H]5C4)CC3)no2)C(C)C)cc1 [Compound 11] | – |
| 1 to 10 nM | > 90% | 1 to 10 nM | > 90% | Cc1ncsc1-c1ccc([C@H](C)NC(=O)[C@@H]2C[C@@H](O)CN2C(=O)[C@@H](c2cc(OCCN3CCC(N4CCN5c6cc(-c7ccccc7O)nnc6N[C@H](C)[C@@H]5C4)CC3)no2)C(C)C)cc1 [Compound 12] | – |
| 1 to 10 nM | > 90% | 0.1 to 1 nM | > 90% | Cc1ncsc1-c1ccc([C@H](C)NC(=O)[C@@H]2C[C@@H](O)CN2C(=O)[C@@H](c2cc(OCCN3CCC(N4CCN5c6cc(-c7ccccc7O)nnc6N[C@H](C)[C@H]5C4)CC3)no2)C(C)C)cc1 [Compound 13] | – |
| 0.1 to 1 nM | 50 to 90% | 0.1 to 1 nM | > 90% | CC[C@]12CNc3nnc(-c4ccccc4O)cc3N1C[C@H](Oc1ccc(CN3CCC(c4ccc5c(c4)C(=O)N([C@H]4CCC(=O)NC4=O)C5)CC3)cn1)C2 [Compound 10] | – |
| 1 to 10 nM | 50 to 90% | 1 to 10 nM | 50 to 90% | Cc1ncsc1-c1ccc([C@H](C)NC(=O)[C@@H]2C[C@@H](O)CN2C(=O)[C@@H](c2cc(OCCN3CCC(N4CCN5c6cc(-c7ccccc7O)nnc6N[C@@H](C)[C@H]5C4)CC3)no2)C(C)C)cc1 [Compound 14] | – |
| 0.1 to 1 nM | > 90% | < 0.1 nM | > 90% | CC[C@]12CNc3nnc(-c4ccccc4O)cc3N1C[C@H](Oc1ccc(CN3CCN(c4ccc5c(c4)C(=O)N([C@H]4CCC(=O)NC4=O)C5)CC3)cn1)C2 [Compound 9] | – |

The next lines start with the compound.

| Compound | DC50 (SMARCA4 [6]) | Dmax (SMARCA4 [6]) | DC50 (SMARCA2 [7]) | Dmax (SMARCA2 [7]) | further results |
| --- | --- | --- | --- | --- | --- |
| Cc1ncsc1-c1ccc([C@H](C)NC(=O)[C@@H]2C[C@@H](O)CN2C(=O)[C@@H](c2cc(OCCN3CCC(CN4CCN5c6cc(-c7ccccc7O)nnc6NC[C@H]5C4)CC3)no2)C(C)C)cc1 [Compound 2] | – | – | – | – | Dmax at 10 mg/kg (SMARCA2 [1]; sc, single dose 10 mg/kg s.c.): 99%; tumor growth inhibition (TGI) [2]: 93%; Dmax at 10 mg/kg (SMARCA4 [3]; sc, single dose 10 mg/kg s.c.): 86%; mouse body weight loss and death [4]: caused mouse body weight loss and death; tumor growth inhibition (PSMA negative PC3 tumors): efficacious; mice died during the study ([5]; 10 mg/kg s.c. Q3D): 83.3% |
| Cc1cc(CN2CCN(c3ccc4c(c3)C(=O)N([C@H]3CCC(=O)NC3=O)C4)CC2)cnc1O[C@H]1CN2c3cc(-c4ccccc4O)nnc3NC[C@]2(C)C1 [Compound 4] | 0.1 to 1 nM | – | < 0.1 nM | – | SMARCA4 Dmax (SMARCA4 [6]): A (Dmax>90%); SMARCA2 Dmax (SMARCA2 [7]): A (Dmax>90%) |
| CC[C@]12CNc3nnc(-c4ccccc4O)cc3N1C[C@H](Oc1ncc(CN3CCN(c4ccc5c(c4)C(=O)N([C@H]4CCC(=O)NC4=O)C5)CC3)cc1C)C2 [Compound 6] | < 0.1 nM | > 90% | < 0.1 nM | > 90% | – |
| Cc1cc(CN2CCN(c3ccc4c(c3)C(=O)N([C@H]3CCC(=O)NC3=O)C4)CC2)cnc1O[C@H]1CN2c3cc(-c4ccccc4O)nnc3NC[C@]2(C)C1 [Compound 3] | 0.1 to 1 nM | – | 0.1 to 1 nM | > 90% | SMARCA4 Dmax (SMARCA4 [6]): B (50%<Dmax≤90%) |
| O=C(/C=C/N1C[C@H]2C[C@@H]1CN2c1ccccn1)c1ccccc1O [PFI-3] | – | – | – | – | effects on cell proliferation inhibition [8]: none to minor effects |
| Cc1cc(C(=O)N2CCN(c3ccc4c(c3)C(=O)N([C@H]3CCC(=O)NC3=O)C4)CC2)cnc1O[C@H]1CN2c3cc(-c4ccccc4O)nnc3NC[C@]2(C)C1 [Compound 5] | 0.1 to 1 nM | 50 to 90% | < 0.1 nM | > 90% | – |
| CC[C@]12CNc3nnc(-c4ccccc4O)cc3N1C[C@H](Oc1ncc(C(=O)N3CCN(c4ccc5c(c4)C(=O)N([C@H]4CCC(=O)NC4=O)C5)CC3)cc1C)C2 [Compound 7] | 0.1 to 1 nM | 50 to 90% | < 0.1 nM | > 90% | – |
| C[C@]12CNc3nnc(-c4ccccc4O)cc3N1C[C@H](Oc1ccc(CN3CCN(c4ccc5c(c4)C(=O)N([C@H]4CCC(=O)NC4=O)C5)CC3)cn1)C2 [Compound 1] | 0.1 to 1 nM | > 90% | < 0.1 nM | > 90% | Dmax at 20 mg/kg (SMARCA2 [1]; [9]): 98%; Dmax at 20 mg/kg (SMARCA4 [3]; [9]): 83%; tumor growth inhibition (PSMA negative PC3 tumors): did not induce significant tumor growth inhibition; body weight loss ([5]; 20 mg/kg i.v. infusion QW): minimal; mouse deaths ([5]; 20 mg/kg i.v. infusion QW): no mouse deaths |
| CC[C@]12CNc3nnc(-c4ccccc4O)cc3N1C[C@H](Oc1ncc(CN3CCN(c4ccc5c(c4)C(=O)N([C@H]4CCC(=O)NC4=O)C5)CC3)nc1C)C2 [Compound 8] | 0.1 to 1 nM | > 90% | < 0.1 nM | > 90% | – |
| C[C@]12CNc3nnc(-c4ccccc4O)cc3N1C[C@H](Oc1ncc(CN3CCN(c4ccc5c(c4)C(=O)N([C@H]4CCC(=O)NC4=O)C5)CC3)cc1F)C2 [Compound 2] | 0.1 to 1 nM | > 90% | 0.1 to 1 nM | > 90% | – |
